The data set in a line: physchem. As to conditions: buffer solution without triazine compound.

SMILES strings stand for the structures. ≈ marks a conversion by molar mass, not a printed value.

Take `CC(C)Cn1cnc2c(N)nc3ccccc3c21` [Imiquimod]: the solubility is 20 µg/mL (≈ 83.2 µM) (pH 6.05, aqueous buffer) and 1.2 µg/mL (≈ 4.99 µM) (pH 7.82, aqueous buffer).

By solubility is commonly meant the concentration that dissolves in the medium under given conditions. Low values mean little dissolved substance, high ones much dissolved substance.

These data come from patent US20080039533A1, “Bioactive Compositions Comprising Triazines” (3M INNOVATIVE PROPERTIES COMPANY, priority 2003, published 2008).
